The values that follow come from PubChem BioAssay (NCI).

Molecules are shown by their SMILES.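 Five concentrations, 48 hours, 96-well plates. TGI denotes the concentration required for complete inhibition of growth.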

Among the test systems are HL-60(TB) leukemia; SF-539 CNS; UO-31 renal; BT-549 breast; UACC-62 melanoma; HT29 colon; MDA-MB-231 breast; NCI-H522 lung; HOP-62 NSCLC; DU-145 prostate; MDA-N; LOX IMVI melanoma; 786-0 renal; SNB-75 CNS; COLO 205 colon; MOLT-4 leukemia; SN12C renal; SK-MEL-2 melanoma; PC-3 prostate; K-562 leukemia.
What all share (experiment): NCI anticancer screen, dose series, 48 h

For `CCCCCCCCCCCCOc1ccc(/C=C/C2=[N+](CCCl)CCO2)cc1`, the TGI in the test on HL-60(TB) leukemia is 28.8 µM; with SF-539 CNS, > 100 µM; in the test with UO-31 renal it was > 100 µM; in the test with BT-549 breast it was > 100 µM; with UACC-62 melanoma, > 100 µM; with HT29 colon, > 100 µM. Also, the TGI is > 100 µM in the test with MDA-MB-231 breast; 47 µM in the test on NCI-H522 lung; > 100 µM with HOP-62 NSCLC; > 100 µM in the test on DU-145 prostate; > 100 µM with MDA-N; 39.9 µM with LOX IMVI melanoma. Also, the TGI with 786-0 renal was 42.7 µM; in the test with SNB-75 CNS, > 100 µM; in the test with COLO 205 colon, > 100 µM; in the test on MOLT-4 leukemia, > 100 µM; in the test with SN12C renal, > 100 µM; with SK-MEL-2 melanoma, > 100 µM. In addition, the TGI in the test with PC-3 prostate and with K-562 leukemia was > 100 µM throughout.
On to `O=c1c2cc(I)ccc2nc(SCc2n[nH]c(=S)o2)n1Cc1ccccc1`, for which the TGI in the test with HL-60(TB) leukemia is 16.5 µM; in the test with SF-539 CNS, 30.3 µM; with UO-31 renal, 3.43 µM; in the test with BT-549 breast, 37.1 µM; in the test on UACC-62 melanoma, 25.4 µM; with HT29 colon, 66.2 µM. Further, the TGI in the test on MDA-MB-231 breast amounted to 33.3 µM; with NCI-H522 lung, 27.8 µM; with HOP-62 NSCLC, 41 µM; with DU-145 prostate, 31.1 µM; in the test on MDA-N, 32 µM; with LOX IMVI melanoma, 29.1 µM. Also, the TGI came to 30.3 µM in the test on 786-0 renal; 23.1 µM in the test with SNB-75 CNS; 22.8 µM in the test with COLO 205 colon; 65.3 µM in the test on MOLT-4 leukemia; 27.6 µM in the test with SN12C renal; 30.4 µM in the test with SK-MEL-2 melanoma. The TGI was found to be 31.3 µM with PC-3 prostate and 70.8 µM in the test with K-562 leukemia.
In the case of `O=C1N[C@@H]2c3c(Br)sc(Br)c3C(=O)[C@@H]2O1`, the TGI is 1.96 µM in the test on HL-60(TB) leukemia; 24.1 µM in the test with SF-539 CNS; 24.8 µM in the test on UO-31 renal; 24.1 µM with BT-549 breast; 27.5 µM in the test with UACC-62 melanoma; 3.59 µM in the test on HT29 colon. Further, the TGI turned out to be 5.83 µM in the test on MDA-MB-231 breast; 1.53 µM in the test on NCI-H522 lung; 42.7 µM in the test with HOP-62 NSCLC; 28.2 µM in the test on DU-145 prostate; 6.44 µM in the test on MDA-N; 3.54 µM with LOX IMVI melanoma. Also, the TGI amounted to 19.8 µM with 786-0 renal; 16.7 µM with SNB-75 CNS; 6.58 µM in the test with COLO 205 colon; 4.61 µM with MOLT-4 leukemia; 8.1 µM with SN12C renal; 37.1 µM in the test on SK-MEL-2 melanoma. The TGI was found to be 18.7 µM in the test with PC-3 prostate and 2.56 µM in the test with K-562 leukemia.
In the case of `CC1(C)C2CC3C4CC5(Nc6ccccc6C5N41)[C@]3(C)CC2=O` (stereo not given in full), the TGI with HL-60(TB) leukemia, with SF-539 CNS, in the test on UO-31 renal, in the test on BT-549 breast, in the test on UACC-62 melanoma and in the test on HT29 colon was > 50 µM in each case. In addition, the TGI with MDA-MB-231 breast, in the test with NCI-H522 lung, in the test with HOP-62 NSCLC, in the test with DU-145 prostate, with MDA-N and with LOX IMVI melanoma was > 50 µM in each case. The TGI in the test with 786-0 renal, in the test on SNB-75 CNS, in the test on COLO 205 colon, in the test on MOLT-4 leukemia, with SN12C renal and in the test on SK-MEL-2 melanoma was > 50 µM throughout. For the same molecule, the TGI in the test with PC-3 prostate and in the test with K-562 leukemia was > 50 µM throughout.
Consider `O=C1c2ccccc2CC12Cc1ccccc1C2`, for which the TGI is 48.4 µM in the test on HL-60(TB) leukemia; > 100 µM with SF-539 CNS; > 100 µM with UO-31 renal; > 100 µM with BT-549 breast; > 100 µM with UACC-62 melanoma; 70.5 µM in the test with HT29 colon. The TGI in the test with MDA-MB-231 breast, in the test with NCI-H522 lung, in the test with HOP-62 NSCLC, in the test with DU-145 prostate, in the test with MDA-N and with LOX IMVI melanoma was > 100 µM in each case. Moreover, the TGI is > 100 µM in the test with 786-0 renal; 90.3 µM with SNB-75 CNS; > 100 µM in the test with COLO 205 colon; > 100 µM in the test on MOLT-4 leukemia; > 100 µM with SN12C renal; > 100 µM with SK-MEL-2 melanoma. Also, the TGI in the test with PC-3 prostate and with K-562 leukemia was > 100 µM in each case.
Consider `C=C(C)C(O)C(O)C[C@@H](C)C1CC[C@]23C[C@]12CCC1[C@@]2(C)CCC(OC(C)=O)C(C)(C)C2CC(OC2OC(CO)C(O)C(O)C2O)[C@]13C` (stereo not given in full), for which the TGI is 36.7 µM in the test with HL-60(TB) leukemia; 27.8 µM in the test on SF-539 CNS; > 100 µM with UO-31 renal; 27.6 µM in the test with BT-549 breast; 31.8 µM with UACC-62 melanoma; 33.6 µM in the test with HT29 colon. Further, the TGI in the test with MDA-MB-231 breast was determined as 28.2 µM; in the test with NCI-H522 lung, 30.7 µM; with HOP-62 NSCLC, 31.9 µM; with DU-145 prostate, 43.3 µM; in the test on MDA-N, 31.1 µM; in the test on LOX IMVI melanoma, 32.3 µM. Moreover, the TGI with 786-0 renal was found to be 35.1 µM; with SNB-75 CNS it was 43 µM; with COLO 205 colon, 31.5 µM; with MOLT-4 leukemia it was 38.3 µM; in the test on SN12C renal it was 30.9 µM; with SK-MEL-2 melanoma it was 30.6 µM. Moreover, the TGI was 34.7 µM in the test on PC-3 prostate and 46.6 µM in the test on K-562 leukemia.
`CCCCCCOc1ccc(C(=O)N(C)O)cc1`: the TGI in the test with HL-60(TB) leukemia was 33.2 µM; with SF-539 CNS, 44.6 µM; in the test on UO-31 renal, 60.9 µM; in the test on BT-549 breast, > 100 µM; in the test with UACC-62 melanoma, 60.9 µM; in the test with HT29 colon it was 27.5 µM. The TGI in the test on MDA-MB-231 breast is > 100 µM; with NCI-H522 lung, 90.6 µM; in the test with HOP-62 NSCLC, > 83.5 µM; in the test on DU-145 prostate, 66 µM; in the test on MDA-N, > 100 µM; in the test on LOX IMVI melanoma, > 100 µM. In addition, the TGI in the test with 786-0 renal is 55.7 µM; in the test on SNB-75 CNS, > 94.4 µM; with COLO 205 colon it was 56 µM; in the test on MOLT-4 leukemia, 50.4 µM; in the test on SN12C renal it was > 93.9 µM; with SK-MEL-2 melanoma, > 100 µM. Besides, the TGI with PC-3 prostate was 98 µM; in the test on K-562 leukemia, > 78.8 µM.
